Source: ChEMBL document CHEMBL1141805, “Isolation of 1-Methylherbipoline Salts of Halisulfate-1 and of Suvanine as Serine Protease Inhibitors from a Marine Sponge, Coscinoderma mathewsi” (J Nat Prod, 1998)

What was measured:
[1] = Inhibition of trypsin
Prothrombin = Prothrombin (Homo sapiens, UniProt P00734)

SMILES | IC50 [1] [µg/mL] | IC50 (Prothrombin) [µM]
CC1(C)CCC[C@H]2[C@H]1CC[C@@]1(C)[C@@H]2CC/C(=C\OS(=O)(=O)[O-])[C@@H]1CCc1ccoc1.[Na+] | 27 | 19.6
CC1(C)CCC[C@H]2[C@H]1CC[C@@]1(C)[C@@H]2CC/C(=C\OS(=O)(=O)[O-])[C@@H]1CCc1ccoc1.C[N+](C)=C(N)N | 23 | 47.7
C/C(=C\Cc1cc(O)ccc1O)CCC[C@@H](C)[C@@H](C[C@@H]1CCC[C@H]2C(C)(C)CCC[C@@]12C)OS(=O)(=O)[O-].[Na+] [HALISULPHATESODIUM] | 2 | 62.6
